One data set is described as follows: Conductivity of neat IL. Format: physicochemical. How it is done: (§1) Determinations of conductivity were made on an ION450 benchtop meter (Radiometer Analytical) with a 2-pole electrode designed for use in viscous liquids (Radiometer Analytical CDC241-9) and calibrated with KCl. Conductivity was measured three times per sample on stirred 3 mL volumes of neat IL at 25° C. Density was measured three times per IL using a 1 mL volumetric flask and an analytical balance.

The conditions of data set [1]: Abbott et al. 2006; cited from earlier work.
A short description of data set [2]: Density (volumetric flask and balance). In kind it is physicochemical. Here is the method: as §1
Data set [3] relates to Normal human bronchial epithelial (NHBE) cells. Description: WST-1 proliferation assay, 24 h exposure to diluted ILs. The settings on record: for IC50: Homo sapiens, NHBE. How it is done: Normal human bronchial epithelial (NHBE) cells were purchased (Lonza, Walkersville, MD) and cultured using bronchial epithelial cell growth media (BEGM, Clonetics Bullet Kit, Lonza, Walkersville, MD) on 100 mm tissue culture treated Petri dishes (Santa Cruz Biotechnologies, Santa Cruz, CA) coated with 50 μg/mL type I rat tail collagen (BD Biosciences, Bedford, MA). Cells were stored in an incubator with a humidified atmosphere at 37° C. and 5% CO2. Cells were fed two times weekly and passaged via trypsinization. Experimentation was performed in triplicate on cells harvested from passages 3 to 7.
NHBE cells were plated in 96-well tissue culture plates at a concentration of 1.5×10^4 cells/well in a volume of 200 μL and allowed to acclimate overnight. On the day of experimentation, treatment plates were prepared using stock ionic liquid diluted in BEGM and then serially diluted 3-fold for a total of 7 concentrations. The 96-well plates containing cells were then aspirated and the treatments (150 μL/well) were carefully transferred from the prep plate to the cells. Cells were exposed to the ionic liquids for 24 hours. Two hours prior to the end of the exposure time, positive control cell wells were aspirated, and a solution of 1% Triton-100 (150 μL/well) was added.
To assess cellular proliferation, water-soluble tetrazolium (WST-1) reagent (Clontech, Mountain View, CA) was added directly to cells, at a 1:10 dilution of the remaining media volume (7.5 μL of WST-1 reagent was added per 75 μL remaining cell culture media). NHBE cells exposed to media only and 1% Triton in BEGM were included as controls. Ionic liquid controls at the highest concentrations tested were included in wells without cells to rule out ionic liquid/assay reagent interference.

Data set [4] can be described thus: Viscosity (Viscolab 3000 viscometer). Format: physicochemical. Here is the method: Viscosity was measured on 1 mL samples with a Viscolab 3000 viscometer (Cambridge Viscosity, Medford, MA). […] Low-temperature differential scanning calorimetry (DSC) was performed on a DSC882e instrument (Mettler-Toledo Inc., Columbus, Ohio) under N2 atmosphere over two complete scans of a temperature range of −60 to 120° C. with a ramp rate of 10° C. per minute and a sample size of 18-21 mg in an aluminum crucible.

Data set [5] in a line: Solubility in water (physical characterization).
Data set [6] deals with porcine skin. Description: Skin transport of 3H-Mannitol in Franz diffusion cell. In kind it is in vitro ADME. The settings on record: for drug permeation into the SC: 24 hr, 37° C. How it is done: (§2) FIG. 1 is a schematic of the skin transport experiment set-up and analysis. Porcine skin was loaded into the Franz diffusion cell (FDC) with the stratum corneum (SC) facing up. Skin was incubated in contact with 3H-labeled drug dissolved in donor solution for 24 hrs, at 37° C., with stirring. After 24 hrs the donor solution was removed and skin thoroughly washed. The SC was separated from the epidermis by tape stripping. Ten tape strips were applied, each tape corresponding to 1 “layer” of SC. Ten tape strips were assumed to remove the entire SC. Epidermis was separated from dermis using a razor blade. Acceptor solution was collected, and drug transport into various tissue layers was quantified by scintillation counter.
3H-labeled Mannitol and Cefadroxil were obtained from American Radiolabeled Chemicals, Inc. and Moravek, respectively. FDCs were used to assess the transport enhancement of ionic liquids using a previously established protocol. Karande, et al., “Discovery of transdermal penetration enhancers by high-throughput screening”, Nat Biotechnol, 22(2): 192-7 (2004). Briefly, the acceptor chamber was filled with degassed PBS and a small stir bar added. Thawed porcine skin was clamped in place between the acceptor and donor chambers with the SC facing up. Care was taken to ensure no air bubbles resided in the acceptor chamber. Ionic liquids or PBS (control) were spiked with 3H-labeled drug (Mannitol and Cefadroxil) to a final concentration of 10 μCi/ml. 300 μL of donor solution was added to the donor chamber and incubated in contact with the SC for 24 hr, at 37° C., with stirring.
After 24 hr, the donor solution was removed, and the skin was thoroughly washed and dried.
SC was separated from epidermis by tape stripping. Ten tape strips were performed in an identical fashion, with each tape corresponding to 1 SC “layer”. Ten strips were assumed to remove the majority of the SC. Epidermis was separated from dermis with a razor blade, and the acceptor solution was collected from the acceptor chamber. Samples from each tissue layer and acceptor solution were dissolved in Soluble (Perkin Elmer, Waltham, MA) overnight and the concentration of radiolabeled solute was measured using a scintillation counter (Packard Tri-Carb 2100 TR, Meriden, CT).

A short description of data set [7]: Calculations of molarity and ionic strength. In kind it is physicochemical. The conditions noted are these: neat IL, Table 5.
The nature of data set [8]: Determination of lipophilicity (octanol/water distribution by UV absorbance). In kind it is physicochemical. The settings on record: for percent in octanol: after extraction with water. How it is done:
A 250 mL volume of n-octanol was shaken with 100 mL of ddH2O and left overnight. […]
The absorption of the octanol layer and water layers were measured and compared with the absorbance of the stock solutions. Measurements were repeated three times and the distribution coefficients were reported as the average. The percent of IL in octanol was calculated as the absorbance of the octanol layer after extraction divided by the absorbance of IL in octanol before extraction. The water/octanol distribution coefficient was calculated as the logarithm of the percent of IL in octanol divided by the percent of IL in water.

Data set [9] has as its system P. aeruginosa (Pseudomonas) biofilm. The conditions noted are these: neat IL.
The subject of data set [10] is S. enterica (Salmonella) biofilm. The conditions noted are these: neat IL.
Data set [11] concerns porcine skin. The data set is described as follows: Skin transport of 3H-Cefadroxil in Franz diffusion cell. In kind it is in vitro ADME. The conditions noted are these: spiked with Cefadroxil. How it is done:
as §2
3H-labeled Mannitol and Cefadroxil were obtained from American Radiolabeled Chemicals, Inc. and Moravek, respectively. FDCs were used to assess the transport enhancement of ionic liquids using a previously established protocol. Karande, et al., “Discovery of transdermal penetration enhancers by high-throughput screening”, Nat Biotechnol, 22(2): 192-7 (2004). […]
SC was separated from epidermis by tape stripping. […] Samples from each tissue layer and acceptor solution were dissolved in Soluble (Perkin Elmer, Waltham, MA) overnight and the concentration of radiolabeled solute was measured using a scintillation counter (Packard Tri-Carb 2100 TR, Meriden, CT).

The term density denotes mass per unit of volume. By viscosity is commonly meant the internal friction of a fluid under shear. The IC50 is the concentration that gives 50% inhibition. For orientation: solubility means the dissolved amount per volume that the medium holds. Low readings indicate little dissolved substance, high ones much dissolved substance. By logP is commonly meant a log measure of how a compound divides between an organic and an aqueous phase. A lower logP goes with a more hydrophilic compound.

Read-outs that look alike come from different tables or passages of the source. Marks after values point to notes of the source that are not given here.

With `C[N+](C)(C)CCO.NC(N)=O.NC(N)=O.[Cl-]` [LANL-6, urea-choline], the values for the conductivity in “Conductivity of neat IL” (25° C.) and in “Conductivity of neat IL” (Table 5) were 0.580 mS/cm and 0.580^a mS/cm, respectively. Also, the “viscosity, literature value at 40° C.” value in data set [1] was 169 cP. The density in [2] (25° C.) and in [2] (Table 5) was 1.21 g/mL in each case. Further, the “toxicity to human primary cells” value in [3] (solubilized in culture medium) was “low toxicity”. The figures for the viscosity in [4] (25° C.), in data set [4] (Table 5) and in [4] (text b171) were 1390 cP, 1386^a cP and 1390 cP, respectively. Besides, the “viscosity at 40° C.” value in data set [4] (40° C.) was 170 cP. Further, the “solubility in water” value in [5] (25° C.) is “miscible”. The “drug permeation into the SC” value in the data set on porcine skin [6] (3H-Mannitol) is reported as “inhibited drug permeation into the SC”. Also, in [7], the ionic strength is given as 2.32 M. Also, the molarity in data set [7] is recorded as 4.65 M. In addition, the “partitioning into octanol” value in data set [8] is “partitioned poorly into octanol”. Further, in data set [8] (Table 3), the percent in octanol was 24 +/− 8%. The “log Po/w” value in [8] (octanol/water, Table 3) was −0.51.
`CCCCCCn1cc[n+](C)c1.[Cl-]` [LANL-7, 1-Hexyl-3-Methylimidazolium Chloride]: the “anti-biofilm efficacy” value in [9] and in data set [10] was “effective” each time. The conductivity in “Conductivity of neat IL” (25° C.) and in “Conductivity of neat IL” (Table 5) was 0.340 mS/cm each time. The density is 1.005 g/mL in [2] (25° C.) and 1.01 g/mL in data set [2] (Table 5). Further, the half-maximal inhibitory concentration (IC50) stood at 10 mM in data set [3] and 10 mM in data set [3] (24 h, read-out: IC50 at 24 h). The “toxicity to human primary cells” value in data set [3] (solubilized in culture medium) was “low toxicity”. In addition, the results for the viscosity in data set [4] (25° C.) and in data set [4] (Table 5) were 680 cP and 679.5 cP, respectively. The same compound came in with a solubility in [5] (water, 25 °C) of 700 mM. Besides, the ionic strength in data set [7] is given as 4.96 M. Also, in [7], the molarity was 4.96 M. Besides, in data set [8] (Table 3), the percent in octanol is recorded as 52 +/− 9%. Further, the lipophilicity (logP) in data set [8] (n-octanol/water, octanol/water, Table 3) was found to be 0.04.
On to choline geranate [LANL-21], for which the values for the conductivity in the data set “Conductivity of neat IL” (25° C.), in “Conductivity of neat IL” (Table 5) and in “Conductivity of neat IL” (text b172) were 0.0431 mS/cm, 0.0431 mS/cm and 0.04 mS/cm, respectively. In addition, the “partitioning into the dermis and acceptor solution versus control (PBS)” value in the data set with porcine skin [11] was 15-20 times. Also, the density in data set [2] (25° C.) and in data set [2] (Table 5) was 0.990 g/mL each time. For the same compound, the viscosity in data set [4] (25° C.) and in [4] (Table 5) was 1345 cP each time. Also, the “loss/partitioning of solute to the acceptor solution” value in the data set with porcine skin [6] (3H-Mannitol) is listed as “enhanced partitioning into the acceptor solution”. Also, the “transport enhancement into/through all layers of the skin” value in the data set on porcine skin [6] (3H-Mannitol, relative to PBS control) was 5-15 fold. The “skin transport properties” value with porcine skin [6] (materials in lower right portion of Walden plot) is on record as “best skin transport properties”. In addition, in data set [7], the ionic strength is 3.39 M. Also, in [7], the molarity is given as 2.26 M. In [8], the “log Po/w” value amounted to 0.28. In data set [8] (Table 3), the percent in octanol is given as 66 +/− 3%.
For the compound choline hexanoate [LANL-13], the “anti-biofilm efficacy” value in data set [9] and in [10] was “effective” throughout. Further, the conductivity in the data set “Conductivity of neat IL” (25° C.), in the data set “Conductivity of neat IL” (Table 5) and in “Conductivity of neat IL” (text b172) was 0.816 mS/cm in each case. Besides, the density in data set [2] (25° C.) and in [2] (Table 5) was 1.01 g/mL in each case. For the same compound, the “toxicity to human primary cells” value in data set [3] is “low toxicity”. Further, the viscosity was determined as 181 cP in [4] (25° C.) and 180.9 cP in data set [4] (Table 5). The “drug permeation into the SC” value with porcine skin [6] (3H-Mannitol) is “inhibited drug permeation into the SC”. Moreover, in [7], the ionic strength was 3.02 M. Besides, the molarity in [7] is 3.02 M. In addition, in data set [8] (Table 3), the percent in octanol was 51 +/− 2%.
